Data reported in US9573930B2 (Quanticel Pharmaceuticals, Inc., priority 2014, dated 2017).

Molecular target: full-length human LSD1 (Homo sapiens (Human), UniProt O60341)
Test: In vitro enzyme inhibition assay LSD-1 (TR-FRET)
Assay type: biochemical
Settings: H3K4me1-biotin peptide
Experimental: This assay determines the ability of a test compound to inhibit LSD1 demethylase activity.
The enzymatic assay of LSD1 activity is based on Time Resolved-Fluorescence Resonance Energy Transfer (TR-FRET) detection.
The ability of the compounds disclosed herein to inhibit LSD1 activity was quantified and the respective IC50 value was determined.

`COc1ccc(-c2c(-c3ccc(C#N)c(F)c3)nc(N3CC[C@@H](N)[C@@H](F)C3)n(C)c2=O)cc1` [Example 78, 4-[2-((4R,3S)-4-amino-3-fluoro-piperidin-1-yl)-5-(4-methoxy-phenyl)-1-methyl-6-oxo-1,6-dihydro-pyrimidin-4-yl]-2-fluoro-benzonitrile] and `COc1ccc(-c2c(-c3ccc(C#N)c(F)c3)nc(N3CC[C@H](N)[C@H](F)C3)n(C)c2=O)cc1` [Example 79, 4-[2-((4S,3R)-4-amino-3-fluoro-piperidin-1-yl)-5-(4-methoxy-phenyl)-1-methyl-6-oxo-1,6-dihydro-pyrimidin-4-yl]-2-fluoro-benzonitrile] cannot be ordered by IC50: under 100 nM for the first, under 100 nM for the second.

`CN(C)C1CCN(c2nc(-c3ccc(C#N)c(F)c3)c(-c3ccc4cn(C)nc4c3)c(=O)n2C)CC1` [Example 80, 4-[2-(4-dimethylamino-piperidin-1-yl)-1-methyl-5-(2-methyl-2H-indazol-6-yl)-6-oxo-1,6-dihydro-pyrimidin-4-yl]-2-fluoro-benzonitrile] and `CN(C)C1CCN(c2nc(-c3ccc(C#N)c(F)c3)c(-c3ccc4cn[nH]c4c3)c(=O)n2C)CC1` [Example 84, 4-[2-(4-dimethylamino-piperidin-1-yl)-5-(2H-indazol-6-yl)-1-methyl-6-oxo-1,6-dihydro-pyrimidin-4-yl]-2-fluoro-benzonitrile] cannot be ordered by IC50: under 100 nM for the first, under 100 nM for the second.

`CN(C)c1ncc(-c2c(-c3ccc(C#N)c(F)c3)nc(N3CCC(N(C)C)CC3)n(C)c2=O)cn1` [Example 81, 4-[2′-dimethylamino-2-(4-dimethylamino-piperidin-1-yl)-1-methyl-6-oxo-1,6-dihydro-[5,5′]bipyrimidinyl-4-yl]-2-fluoro-benzonitrile] and `Cc1ccc(-c2c(-c3ccc(C#N)c(F)c3)nc(N3CCC(N(C)C)CC3)n(C)c2=O)cn1` [Example 82, 4-[2-(4-dimethylamino-piperidin-1-yl)-1-methyl-5-(6-methyl-pyridin-3-yl)-6-oxo-1,6-dihydro-pyrimidin-4-yl]-2-fluoro-benzonitrile] cannot be ordered by IC50: under 100 nM for the first, under 100 nM for the second.

`CNC1CCN(c2nc(-c3ccc(C#N)c(F)c3)c(-c3ccc(N(C)C)nc3)c(=O)n2C)CC1` [Example 83, 4-[5-(6-dimethylamino-pyridin-3-yl)-1-methyl-2-(4-methylamino-piperidin-1-yl)-6-oxo-1,6-dihydro-pyrimidin-4-yl]-2-fluoro-benzonitrile] and `COc1ccc(-c2c(-c3ccc(C#N)c(F)c3)nc(N3CCC(N(C)C)CC3)n(C)c2=O)cn1` [Example 92, 4-[2-[4-(dimethylamino)piperidin-1-yl]-5-(6-methoxypyridin-3-yl)-1-methyl-6-oxopyrimidin-4-yl]-2-fluorobenzonitrile] cannot be ordered by IC50: under 100 nM for the first, under 100 nM for the second.

`CNC1CCN(c2nc(-c3ccc(C#N)c(F)c3)c(-c3ccc4c(cnn4C)c3)c(=O)n2C)CC1` [Example 87, 2-fluoro-4-[1-methyl-2-[4-(methylamino)piperidin-1-yl]-5-(1-methylindazol-5-yl)-6-oxopyrimidin-4-yl]benzonitrile] and `Cn1c(N2CCC(N)CC2)nc(-c2ccc(C#N)c(F)c2)c(-c2ccc3[nH]ncc3c2)c1=O` [Example 88, 4-[2-(4-aminopiperidin-1-yl)-5-(1H-indazol-5-yl)-1-methyl-6-oxopyrimidin-4-yl]-2-fluorobenzonitrile] cannot be ordered by IC50: under 100 nM for the first, under 100 nM for the second.

`Cn1c(N2CCC(N)CC2)nc(-c2ccc(C#N)c(F)c2)c(-c2ccc(N)cc2)c1=O` [Example 89, 4-[5-(4-aminophenyl)-2-(4-aminopiperidin-1-yl)-1-methyl-6-oxopyrimidin-4-yl]-2-fluorobenzonitrile] and `Cn1c(N2CCC(N)CC2)nc(-c2ccc(C#N)c(F)c2)c(-c2ccc(F)cc2)c1=O` [Example 101, 4-[2-(4-aminopiperidin-1-yl)-5-(4-fluorophenyl)-1-methyl-6-oxopyrimidin-4-yl]-2-fluorobenzonitrile] cannot be ordered by IC50: under 100 nM for the first, under 100 nM for the second.

`CNc1ccc(-c2c(-c3ccc(C#N)c(F)c3)nc(N3CCC(N)CC3)n(C)c2=O)cc1` [Example 90, 4-[2-(4-aminopiperidin-1-yl)-1-methyl-5-[4-(methylamino)phenyl]-6-oxopyrimidin-4-yl]-2-fluorobenzonitrile] and `Cn1c(N2CCC(N)CC2)nc(-c2ccc(C#N)c(F)c2)c(-c2ccc(Cl)cc2)c1=O` [Example 106, 4-[2-(4-aminopiperidin-1-yl)-5-(4-chlorophenyl)-1-methyl-6-oxopyrimidin-4-yl]-2-fluorobenzonitrile] cannot be ordered by IC50: under 100 nM for the first, under 100 nM for the second.

`CNc1ccc(-c2c(-c3ccc(C#N)c(F)c3)nc(N3CCC(N)CC3)n(C)c2=O)cc1F` [Example 91, 4-[2-(4-aminopiperidin-1-yl)-5-[3-fluoro-4-(methylamino)phenyl]-1-methyl-6-oxopyrimidin-4-yl]-2-fluorobenzonitrile] and `Cn1c(N2CCC(N)CC2)nc(-c2ccc(C#N)c(F)c2)c(-c2ccc(F)c(F)c2)c1=O` [Example 104, 4-[2-(4-aminopiperidin-1-yl)-5-(3,4-difluorophenyl)-1-methyl-6-oxopyrimidin-4-yl]-2-fluorobenzonitrile] cannot be ordered by IC50: under 100 nM for the first, under 100 nM for the second.

`CCOc1ncc(-c2c(-c3ccc(C#N)c(F)c3)nc(N3CCC(N)CC3)n(C)c2=O)cc1F` [Example 93, 4-[2-(4-aminopiperidin-1-yl)-5-(6-ethoxy-5-fluoropyridin-3-yl)-1-methyl-6-oxopyrimidin-4-yl]-2-fluorobenzonitrile] and `CCOc1ccc(-c2c(-c3ccc(C#N)c(F)c3)nc(N3CCC(N)CC3)n(C)c2=O)cn1` [Example 94, 4-[2-(4-aminopiperidin-1-yl)-5-(6-ethoxypyridin-3-yl)-1-methyl-6-oxopyrimidin-4-yl]-2-fluorobenzonitrile] cannot be ordered by IC50: under 100 nM for the first, under 100 nM for the second.

`CCOc1ccc(-c2c(-c3ccc(C#N)c(F)c3)nc(N3CCC(N)CC3)n(C)c2=O)cc1` [Example 95, 4-[2-(4-aminopiperidin-1-yl)-5-(4-ethoxyphenyl)-1-methyl-6-oxopyrimidin-4-yl]-2-fluorobenzonitrile] and `COCCOc1ccc(-c2c(-c3ccc(C#N)c(F)c3)nc(N3CCC(N)CC3)n(C)c2=O)cc1` [Example 98, 4-[2-(4-aminopiperidin-1-yl)-5-[4-(2-methoxyethoxy)phenyl]-1-methyl-6-oxopyrimidin-4-yl]-2-fluorobenzonitrile] cannot be ordered by IC50: under 100 nM for the first, under 100 nM for the second.

`Cn1c(N2CCC(N)CC2)nc(-c2ccc(C#N)cc2)c(-c2ccc(OCCO)cc2)c1=O` [Example 97, 4-[2-(4-aminopiperidin-1-yl)-5-[4-(2-hydroxyethoxy)phenyl]-1-methyl-6-oxopyrimidin-4-yl]benzonitrile] and `Cn1c(N2CCC(N)CC2)nc(-c2ccc(C#N)c(F)c2)c(-c2ccc(CCO)cc2)c1=O` [Example 99, 4-[2-(4-aminopiperidin-1-yl)-5-[4-(2-hydroxyethyl)phenyl]-1-methyl-6-oxopyrimidin-4-yl]-2-fluorobenzonitrile] cannot be ordered by IC50: under 100 nM for the first, under 100 nM for the second.

`Cn1c(N2CCC(N)CC2)nc(-c2ccc(C#N)c(F)c2)c(-c2ccc(CO)cc2)c1=O` [Example 100, 4-[2-(4-aminopiperidin-1-yl)-5-[4-(hydroxymethyl)phenyl]-1-methyl-6-oxopyrimidin-4-yl]-2-fluorobenzonitrile] and `COCc1ccc(-c2c(-c3ccc(C#N)c(F)c3)nc(N3CCC(N)CC3)n(C)c2=O)cc1` [Example 107, 4-[2-(4-aminopiperidin-1-yl)-5-[4-(methoxymethyl)phenyl]-1-methyl-6-oxopyrimidin-4-yl]-2-fluorobenzonitrile] cannot be ordered by IC50: under 100 nM for the first, under 100 nM for the second.

`Cn1c(N2CCC(N)CC2)nc(-c2ccc(C#N)c(F)c2)c(-c2cccc(F)c2)c1=O` [Example 102, 4-[2-(4-aminopiperidin-1-yl)-5-(3-fluorophenyl)-1-methyl-6-oxopyrimidin-4-yl]-2-fluorobenzonitrile] and `Cn1c(N2CCC(N)CC2)nc(-c2ccc(C#N)c(F)c2)c(-c2cc(F)cc(F)c2)c1=O` [Example 103, 4-[2-(4-aminopiperidin-1-yl)-5-(3,5-difluorophenyl)-1-methyl-6-oxopyrimidin-4-yl]-2-fluorobenzonitrile] cannot be ordered by IC50: under 100 nM for the first, under 100 nM for the second.

First: Cn1c(N2CCC(N)CC2)nc(-c2ccc(C#N)c(F)c2)c(-c2ccc(S(C)(=O)=O)cc2)c1=O [Example 105, 4-[2-(4-aminopiperidin-1-yl)-1-methyl-5-(4-methylsulfonylphenyl)-6-oxopyrimidin-4-yl]-2-fluorobenzonitrile]
Second: COc1ccc(-c2c(-c3ccc(Cl)c(F)c3)nc(N3CCC(N)CC3)n(C)c2=O)cc1 [Example 111, 2-(4-amino-piperidin-1-yl)-6-(4-chloro-3-fluoro-phenyl)-5-(4-methoxy-phenyl)-3-methyl-3H-pyrimidin-4-one]
The IC50 of the first is lower: under 100 nM for the first, 100 to 1000 nM for the second.

First: Cn1c(N2CCC(N)CC2)nc(-c2ccc(C#N)c(F)c2)cc1=O [Example 108, 4-[2-(4-aminopiperidin-1-yl)-1-methyl-6-oxopyrimidin-4-yl]-2-fluorobenzonitrile]
Second: N#Cc1ccc(-c2cc(=O)n(CC3CC3)c(N3CCC(N)CC3)n2)cc1F [Example 109, 4-[2-(4-amino-piperidin-1-yl)-1-cyclopropylmethyl-6-oxo-1,6-dihydro-pyrimidin-4-yl]-2-fluoro-benzonitrile]
The IC50 of the first is lower: under 100 nM for the first, 100 to 1000 nM for the second.

First: C#Cc1c(-c2ccc(C#N)c(F)c2)nc(N2CCC(N)CC2)n(C)c1=O [Example 110]
Second: Cn1c(N2CCC(N)CC2)nc(-c2ccc(F)cc2)c(-c2ccc3c(ccn3C)c2)c1=O [Example 113, 2-(4-amino-piperidin-1-yl)-6-(4-fluoro-phenyl)-3-methyl-5-(1-methyl-1H-indol-5-yl)-3H-pyrimidin-4-one]
The IC50 of the first is lower: under 100 nM for the first, 100 to 1000 nM for the second.

Compared with `Cn1c(N2CCC(N)CC2)nc(-c2ccccc2)c(-c2ccc3c(ccn3C)c2)c1=O` [Example 114, 2-(4-amino-piperidin-1-yl)-3-methyl-5-(1-methyl-1H-indol-5-yl)-6-phenyl-3H-pyrimidin-4-one], `Cn1c(N2CCC(N)CC2)nc(-c2ccncc2)c(-c2ccc3c(ccn3C)c2)c1=O` [Example 116, 2-(4-amino-piperidin-1-yl)-3-methyl-5-(1-methyl-1H-indol-5-yl)-6-pyridin-4-yl-3H-pyrimidin-4-one] is lower in IC50: over 10000 nM for the first, 100 to 1000 nM for the second.
